Measured values from ChEMBL document CHEMBL5634069, “Exploring N-myristoyltransferase as a promising drug target against parasitic neglected tropical diseases” (Eur J Med Chem, 2023).
Values belong to the compound of their own block, whether it stands above or below them.

How the values were obtained:
Leishmania donovani [1] = experiment: Antileishmanial activity against Leishmania donovani MHOM/ET/67/HU3 axenic amastigotes; format: functional, organism-based
Leishmania donovani [2] = experiment: Antileishmanial activity against Leishmania donovani MHOM/ET/67/HU3 infected in BALB/c mouse model assessed as reduction in parasitic load at 50 mg/kg, po measured after 5 days relative to control; format: functional; design: scale not given: the % may be the effect or the level left; conditions: time 5 day
[3] = Selectivity index, ratio of IC50 for MDCK cells to IC50 for trophozoite stage Plasmodium falciparum 3D7; format: toxicity; conditions: dog; read-out: Ratio IC50
[4] = Cytotoxicity against MDCK cells incubated overnight by MTT assay; format: toxicity, cell-based, Canis lupus familiaris; conditions: dog
Plasmodium falciparum [5] = experiment: Antiplasmodial activity against trophozoite stage Plasmodium falciparum 3D7 assessed as inhibition of plasmodial growth measured after 48 hrs by flow cytometry analysis; format: functional, organism-based; conditions: 3D7, 48 h
Plasmodium falciparum [6] = experiment: Antiplasmodial activity against chloroquine resistant Plasmodium falciparum K1 assessed as inhibition of plasmodial growth measured after 48 hrs by flow cytometry analysis; format: functional, organism-based; conditions: K1, 48 h
Trypanosoma cruzi = experiment: Antiprotozoal activity against Trypanosoma cruzi amastigotes measured after 24 hrs; format: functional, organism-based
Leishmania amazonensis = experiment: Antileishmanial activity against Leishmania amazonensis IFLA/BR/1967/PH8 promastigote; format: functional, organism-based
Plasmodium falciparum [7] = experiment: Antiplasmodial activity against Plasmodium falciparum; format: functional, organism-based
[8] = molecular target: T1, Glycylpeptide N-tetradecanoyltransferase (Plasmodium falciparum, UniProt Q9U419); experiment: Inhibition of recombinant his tagged Plasmodium falciparum NMT expressed in Escherichia coli
T1 sequence (Q9U419 whole entry): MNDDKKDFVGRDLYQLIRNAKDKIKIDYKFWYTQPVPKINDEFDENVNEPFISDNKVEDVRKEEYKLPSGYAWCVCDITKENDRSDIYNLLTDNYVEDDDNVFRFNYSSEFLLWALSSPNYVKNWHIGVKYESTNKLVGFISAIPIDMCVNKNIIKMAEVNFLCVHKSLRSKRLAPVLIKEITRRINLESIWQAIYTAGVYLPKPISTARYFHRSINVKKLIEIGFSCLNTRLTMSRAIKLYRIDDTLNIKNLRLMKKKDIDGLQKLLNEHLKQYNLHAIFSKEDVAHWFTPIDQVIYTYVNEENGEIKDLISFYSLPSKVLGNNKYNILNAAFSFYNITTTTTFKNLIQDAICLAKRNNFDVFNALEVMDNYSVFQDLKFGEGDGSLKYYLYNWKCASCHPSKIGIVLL

Plasmodium falciparum [9] = experiment: Antiplasmodial activity against Plasmodium falciparum 3D7 assessed as reduction in parasitemia growth; format: functional, organism-based
[10] = molecular target: T2, Glycylpeptide N-tetradecanoyltransferase 1 (Homo sapiens, UniProt P30419); experiment: Inhibition of human NMT
T2 sequence (P30419 whole entry): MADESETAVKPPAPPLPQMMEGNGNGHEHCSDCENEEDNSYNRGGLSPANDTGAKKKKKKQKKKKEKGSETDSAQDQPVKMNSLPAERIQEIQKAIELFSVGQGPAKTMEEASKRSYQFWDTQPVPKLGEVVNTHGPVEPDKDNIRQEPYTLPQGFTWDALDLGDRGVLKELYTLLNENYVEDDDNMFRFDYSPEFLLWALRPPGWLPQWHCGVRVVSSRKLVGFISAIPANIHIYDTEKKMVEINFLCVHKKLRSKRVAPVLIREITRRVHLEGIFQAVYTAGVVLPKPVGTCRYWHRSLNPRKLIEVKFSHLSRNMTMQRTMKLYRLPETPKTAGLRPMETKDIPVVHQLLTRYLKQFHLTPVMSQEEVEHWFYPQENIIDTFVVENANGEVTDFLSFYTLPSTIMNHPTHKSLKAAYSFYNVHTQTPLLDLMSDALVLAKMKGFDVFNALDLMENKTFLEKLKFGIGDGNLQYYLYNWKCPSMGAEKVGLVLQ

Trypanosoma brucei [11] = experiment: Antitrypanosomal activity against Trypanosoma brucei assessed as reduction in parasite growth; format: functional, organism-based
[12] = Inhibition of Trypanosoma brucei NMT
[13] = Cytotoxicity against mouse RAW 264 cells by alamar blue staining based analysis; format: functional; conditions: RAW264.7, read-out: ED50 (the source's name)
[14] = Inhibition of N terminal his-6 tagged recombinant Trypanosoma brucei NMT using CAP5.5 peptide as substrate incubated for 10 mins
Trypanosoma brucei [15] = experiment: Antiprotozoal activity against blood stream form Trypanosoma brucei assessed as reduction in number of viable parasites measured after 72 hrs by Alamar blue staining based analysis; format: functional; conditions: read-out: ED50 (the source's name)
[16] = tested on: Trypanosoma brucei brucei; experiment: Antitrypanosomal activity against bloodstream Trypanosoma brucei brucei s427 assessed as reduction in parasite growth measured after 72 hrs by inverted microscope based analysis; format: functional, organism-based; conditions: s427, 72 h
Leishmania donovani [17] = experiment: Antileishmanial activity against Leishmania donovani promastigote assessed as reduction in parasite growth measured after 72 hrs; format: functional, organism-based
[18] = molecular target: T3, Glycylpeptide N-tetradecanoyltransferase 2 (Homo sapiens, UniProt O60551); experiment: Inhibition of human NMT2
T3 sequence (O60551 whole entry): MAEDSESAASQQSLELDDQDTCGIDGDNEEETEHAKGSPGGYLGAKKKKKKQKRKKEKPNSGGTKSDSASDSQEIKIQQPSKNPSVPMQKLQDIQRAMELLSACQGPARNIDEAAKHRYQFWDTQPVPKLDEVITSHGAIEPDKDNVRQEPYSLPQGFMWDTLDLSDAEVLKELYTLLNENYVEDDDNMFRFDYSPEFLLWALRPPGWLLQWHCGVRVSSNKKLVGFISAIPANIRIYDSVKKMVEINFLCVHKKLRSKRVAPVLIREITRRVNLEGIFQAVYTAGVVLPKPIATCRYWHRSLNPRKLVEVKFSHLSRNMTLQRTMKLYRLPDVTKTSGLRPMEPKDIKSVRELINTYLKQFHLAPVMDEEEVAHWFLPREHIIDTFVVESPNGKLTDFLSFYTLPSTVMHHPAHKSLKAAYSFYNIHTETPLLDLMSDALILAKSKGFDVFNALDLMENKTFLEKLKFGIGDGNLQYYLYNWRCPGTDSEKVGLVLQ

[19] = molecular target: T2, Glycylpeptide N-tetradecanoyltransferase 1; experiment: Inhibition of human NMT1
[20] = molecular target: T1, Glycylpeptide N-tetradecanoyltransferase; experiment: Inhibition of recombinant Plasmodium falciparum NMT using 3H-myristoyl CoA as substrate preincubated for 15 mins followed by substrate addition and measured after 80 mins
Leishmania donovani [21] = experiment: Antileishmanial activity against Leishmania donovani amastigotes; format: functional, organism-based
[22] = Binding affinity to Leishmania donovani NMT assessed as apparent inhibition constant; conditions: read-out: Ki(app)
Leishmania donovani [23] = experiment: Antileishmanial activity against Leishmania donovani promastigotes; format: functional, organism-based
[24] = Inhibition of recombinant Leishmania donovani NMT

EC50 (Leishmania donovani [1]): 2.4 µM
SMILES: Cc1nn(C)c(C)c1N(C(F)F)S(=O)(=O)c1c(Cl)cc(CCCC2CCN(C)CC2)cc1Cl
Activity (Leishmania donovani [2]): 52%

SMILES: O=[N+]([O-])c1ccc(S(=O)(=O)N2CCC(O[C@@H](c3ccc(Cl)cc3)c3ccccn3)CC2)cc1
selectivity ratio [3]: > 61.1 | IC50 [4]: > 200 µM | IC50 (Plasmodium falciparum [5]): 3.27 µM | IC50 (Plasmodium falciparum [6]): 7.22 µM

EC50 (Trypanosoma cruzi): 0.06 µM
SMILES: Cc1nn(C)c(C)c1N(C(F)F)S(=O)(=O)c1c(Cl)cc(-c2ccc(CCCC3CCN(C)CC3)cc2)cc1Cl

SMILES: COc1ccc(NC(=O)C[Se]C(=O)c2ccccc2)cc1
IC50 (Leishmania amazonensis): 8.71 µM

IC50 (Plasmodium falciparum [7]): 3.6 µM
SMILES: Cc1ccc(S(=O)(=O)NC(C)C(=O)NC(C)C(=O)NC23CC4CC(CC(C4)C2)C3)cc1 (centres undefined)

IC50 [8]: 1.4 µM
SMILES: Cc1cc(Nc2ccc([N+](=O)[O-])cc2O)nc2ccccc12
EC50 (Plasmodium falciparum [9]): 0.4 µM

IC50 [10]: 0.1 µM | EC50 (Trypanosoma brucei [11]): 0.007 µM
SMILES: Cc1cc(CN2C(=O)COc3c(CCCCC4CCCN(C)CC4)cccc32)no1 (centres undefined)
IC50 [12]: < 0.002 µM

EC50 (Trypanosoma brucei [15]): 66 µM
SMILES: CC(=O)O[C@@H]1C2[C@H](N(C)C)C(O)=C(C(N)=O)C(=O)[C@@]2(O)C(O)=C2C(=O)c3c(O)cccc3C(=O)[C@@H]21 (some centres undefined)
EC50 [13]: 1500 µM | IC50 [14]: 0.25 µM

IC50 [16]: 45 µM
SMILES: Cc1onc(-c2ccccc2)c1CNS(=O)(=O)c1cnn(-c2ccccc2)c1C
IC50 (Leishmania donovani [17]): 15.7 µM

EC50 (Trypanosoma cruzi): 0.02 µM
SMILES: Cc1nn(C)c(C)c1N(C(F)F)S(=O)(=O)c1c(Cl)cc(-c2ccc(CCCCC3CCN(C)CC3)cc2)cc1Cl

EC50 (Trypanosoma brucei [11]): 14 µM
SMILES: COc1cc(C2SCC(=O)N2Cc2ccccn2)ccc1O (centres undefined)
IC50 [12]: 0.27 µM

IC50 [18]: 76 µM | IC50 [19]: 70 µM | IC50 [20]: 0.48 µM
SMILES: Cc1ncc(CNC(=O)C2CN(c3nc(NCCN(C)C)ncc3Cl)C2)cn1

IC50 [16]: 2.91 µM
SMILES: CCOC(=O)c1c(C)nn(-c2ccc(NS(=O)(=O)c3ccc(OC)cc3)cc2)c1C
IC50 (Leishmania donovani [17]): 13.8 µM

SMILES: CCOC(=O)CN1C(=O)COc2ccccc21
IC50 [12]: 12 µM

EC50 (Trypanosoma brucei [11]): 0.007 µM
SMILES: Cc1cc(CN2C(=O)COc3cc(CCCCC4CCN(C)CC4)ccc32)no1

SMILES: Cc1nc(CN2C(=O)COc3ccccc32)no1
IC50 [12]: 7 µM

SMILES: Cc1nn(C)c(C)c1NS(=O)(=O)c1c(Cl)cc(-c2ccnc(N3CCNCC3)c2)cc1Cl
EC50 (Leishmania donovani [21]): 7 µM | Ki [22]: 0.0025 µM | EC50 (Leishmania donovani [23]): 23 µM

SMILES: COc1cc(C2SCC(=O)N2Cc2ccccc2)ccc1O (centres undefined)
IC50 [12]: 22 µM

IC50 [24]: 0.024 µM
SMILES: CCOC(=O)c1cnc2ccc(OCc3ccc(N4CCNCC4)nc3)cc2c1SCCC#N

SMILES: O=S(=O)(c1cc(Cl)ccc1Cl)N1CCC(O[C@H](c2ccc(Cl)cc2)c2ccccn2)CC1
selectivity ratio [3]: > 92.3 | IC50 [4]: > 200 µM | IC50 (Plasmodium falciparum [5]): 2.17 µM | IC50 (Plasmodium falciparum [6]): 2.38 µM

EC50 (Trypanosoma brucei [11]): 0.007 µM
SMILES: Cc1cc(CN2C(=O)COc3c(CCCCC4CCNCC4)cccc32)no1

SMILES: O=S(=O)(c1cc(Cl)ccc1Cl)N1CCC(O[C@@H](c2ccc(Cl)cc2)c2ccccn2)CC1
selectivity ratio [3]: > 68.8 | IC50 [4]: > 200 µM | IC50 (Plasmodium falciparum [5]): 2.91 µM | IC50 (Plasmodium falciparum [6]): 4.19 µM
